Test results: PubChem BioAssay (NCI)
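Interpolation was linear, between the two tested concentrations surrounding the appropriate level; five concentrations were tested over 48 hours in 96-well plates. TGI: total growth inhibition.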

What was measured:
Test in all cases: NCI tumour cell line growth inhibition, 48 h
[1] = test system: RPMI-8226 leukemia
[2] = test system: K-562 leukemia
[3] = test system: SNB-19 CNS
[4] = test system: EKVX NSCLC
[5] = test system: COLO 205 colon
[6] = test system: MCF7 breast
[7] = test system: NCI-H23 lung
[8] = test system: A498 renal
[9] = test system: UO-31 renal
[10] = test system: MOLT-4 leukemia
[11] = test system: MDA-MB-231 breast
[12] = test system: 786-0 renal
[13] = test system: HS 578T breast
[14] = test system: BT-549 breast
[15] = test system: OVCAR-5 ovarian
[16] = test system: SF-268 CNS
[17] = test system: U251 CNS
[18] = test system: OVCAR-4 ovarian
[19] = test system: LOX IMVI melanoma

**Q.** How did the TGI [1] turn out when `CCOC(=O)c1c(NC(=O)c2cccs2)sc2c1CCC2` was run?
**A.** > 100 µM

**Q.** What about the TGI [2] of the same molecule?
**A.** > 100 µM

**Q.** What about the TGI [3] of the same molecule?
**A.** > 100 µM

**Q.** And the TGI [4]?
**A.** > 100 µM

**Q.** And the TGI [5]?
**A.** > 100 µM

**Q.** What about the TGI [6] of the same molecule?
**A.** > 100 µM

**Q.** And the TGI [7]?
**A.** > 100 µM

**Q.** What about the TGI [8] of the same molecule?
**A.** > 100 µM

**Q.** And the TGI [9]?
**A.** > 100 µM

**Q.** What about the TGI [10] of the same molecule?
**A.** > 100 µM

**Q.** And the TGI [11]?
**A.** > 100 µM

**Q.** And the TGI [12]?
**A.** > 100 µM

**Q.** And the TGI [13]?
**A.** > 100 µM

**Q.** And the TGI [14]?
**A.** > 100 µM

**Q.** And the TGI [15]?
**A.** > 100 µM

**Q.** What about the TGI [16] of the same molecule?
**A.** > 100 µM

**Q.** Which results are given for `Cc1cc(S(=O)(=O)Nc2nc(N)n(-c3ccccn3)n2)c(S)cc1Cl`?
**A.** TGI [1]: > 100 µM; TGI [2]: > 100 µM; TGI [3]: > 100 µM; TGI [4]: > 100 µM; TGI [5]: > 100 µM; TGI [6]: > 100 µM; TGI [8]: > 100 µM; TGI [9]: > 100 µM; TGI [10]: > 100 µM; TGI [11]: > 100 µM; TGI [17]: > 100 µM; TGI [18]: > 100 µM; TGI [12]: > 100 µM; TGI [13]: > 100 µM; TGI [14]: > 100 µM; TGI [15]: > 100 µM; TGI [19]: > 100 µM; TGI [16]: > 100 µM

**Q.** `CCOC(=O)N(NC(=O)NC(C)C)c1ccccc1` was tested. Which TGI [2] did it give?
**A.** > 100 µM

**Q.** And the TGI [3]?
**A.** > 100 µM

**Q.** And the TGI [4]?
**A.** > 100 µM

**Q.** And the TGI [5]?
**A.** > 100 µM

**Q.** And the TGI [6]?
**A.** > 100 µM

**Q.** And the TGI [7]?
**A.** > 100 µM

**Q.** And the TGI [8]?
**A.** > 100 µM

**Q.** And the TGI [9]?
**A.** > 100 µM

**Q.** And the TGI [10]?
**A.** > 100 µM

**Q.** And the TGI [11]?
**A.** > 100 µM

**Q.** And the TGI [17]?
**A.** > 100 µM

**Q.** And the TGI [18]?
**A.** > 100 µM

**Q.** What about the TGI [12] of the same molecule?
**A.** > 100 µM

**Q.** And the TGI [13]?
**A.** > 100 µM

**Q.** What about the TGI [14] of the same molecule?
**A.** > 100 µM

**Q.** And the TGI [15]?
**A.** > 100 µM

**Q.** What about the TGI [19] of the same molecule?
**A.** > 100 µM

**Q.** What does the source list for `CC(C)(C)/C(=N\Nc1nc2ccccc2[nH]1)c1ccccn1`?
**A.** TGI [1]: 35.4 µM; TGI [2]: > 100 µM; TGI [3]: > 100 µM; TGI [5]: > 100 µM; TGI [6]: 67.2 µM; TGI [7]: > 100 µM; TGI [8]: > 100 µM; TGI [9]: > 100 µM; TGI [10]: > 100 µM; TGI [11]: > 100 µM; TGI [17]: > 100 µM; TGI [18]: > 100 µM; TGI [12]: > 100 µM; TGI [13]: > 100 µM; TGI [14]: > 100 µM; TGI [19]: > 100 µM; TGI [16]: > 100 µM

**Q.** Which TGI [1] does the source give for `O=C1N=C(SC2OC(CO)C(O)C(O)C2O)S/C1=C\c1ccccc1` (centres undefined) here?
**A.** > 100 µM

**Q.** And the TGI [2]?
**A.** > 100 µM

**Q.** What about the TGI [3] of the same molecule?
**A.** > 100 µM

**Q.** What about the TGI [6] of the same molecule?
**A.** > 100 µM

**Q.** And the TGI [7]?
**A.** > 100 µM

**Q.** And the TGI [8]?
**A.** > 100 µM

**Q.** What about the TGI [9] of the same molecule?
**A.** > 100 µM

**Q.** What about the TGI [10] of the same molecule?
**A.** > 100 µM

**Q.** What about the TGI [11] of the same molecule?
**A.** > 100 µM

**Q.** What about the TGI [12] of the same molecule?
**A.** > 100 µM

**Q.** And the TGI [13]?
**A.** > 100 µM

**Q.** And the TGI [14]?
**A.** > 100 µM

**Q.** And the TGI [15]?
**A.** > 100 µM

**Q.** And the TGI [19]?
**A.** > 100 µM

**Q.** And the TGI [16]?
**A.** > 100 µM

**Q.** How did the TGI [1] turn out when `COC(=O)C1=C(O)C(C(=O)OC)[C@]2(O)[C@H](C(=O)OC)[C@H]1C[C@@H](c1ccc(OC)c(OC)c1)[C@H]2C(=O)OC` (some centres undefined) was run?
**A.** 19.1 µM

**Q.** What about the TGI [2] of the same molecule?
**A.** 77.3 µM

**Q.** And the TGI [3]?
**A.** 73.3 µM

**Q.** And the TGI [4]?
**A.** > 100 µM

**Q.** And the TGI [5]?
**A.** 66.3 µM

**Q.** What about the TGI [6] of the same molecule?
**A.** > 100 µM

**Q.** And the TGI [7]?
**A.** > 100 µM

**Q.** And the TGI [8]?
**A.** 54.7 µM

**Q.** And the TGI [9]?
**A.** > 100 µM

**Q.** What about the TGI [10] of the same molecule?
**A.** 69.8 µM

**Q.** And the TGI [11]?
**A.** > 100 µM

**Q.** What about the TGI [17] of the same molecule?
**A.** 25.3 µM

**Q.** What about the TGI [18] of the same molecule?
**A.** > 100 µM

**Q.** And the TGI [12]?
**A.** > 100 µM

**Q.** And the TGI [13]?
**A.** > 100 µM

**Q.** And the TGI [14]?
**A.** 83.7 µM

**Q.** And the TGI [15]?
**A.** > 100 µM

**Q.** And the TGI [19]?
**A.** 29.6 µM

**Q.** What does the source list for `Cc1ccc([N+](=O)[O-])cc1S(=O)(=O)Nc1ccc(C2=NN(c3ccc([N+](=O)[O-])cc3[N+](=O)[O-])C(c3cccs3)C2)cc1` (centres undefined)?
**A.** TGI [1]: 60.5 µM; TGI [2]: > 100 µM; TGI [3]: > 100 µM; TGI [4]: 59.2 µM; TGI [5]: 54.5 µM; TGI [6]: 80.1 µM; TGI [7]: 44.1 µM; TGI [9]: > 100 µM; TGI [10]: 53.3 µM; TGI [11]: 50.8 µM; TGI [17]: 72.3 µM; TGI [18]: 77.3 µM; TGI [12]: 38.6 µM; TGI [13]: 79.1 µM; TGI [14]: 49.8 µM; TGI [15]: > 100 µM; TGI [19]: 39.9 µM; TGI [16]: 69.9 µM
